The results in this text go back to patent publication US20080274892A1, “Novel Haloalkylsulfonanilide Derivative, Herbicide, and Method of Use Thereof” (priority 2005, published 2008).

Series [1] concerns bulrush. The experiment in a line: Test Example 2: herbicidal efficacy on rice paddy weeds post-emergence. Type of series: in vivo, Scirpus juncoides. Conditions: dosage 1000 g/ha; post-emergence, one leaf stage; 21 days after treatment.
Series [2] has as its system bulrush. Kind of series: Test Example 4: low dosage test for rice paddy weeds. Type of series: in vivo, Scirpus juncoides. Conditions: 300 g/ha as an active ingredient; plants treated at the one leaf stage; 21 days after treatment; vs untreated control. An excerpt:
(§1) The standard of judgment for herbicidal efficacy (degree of growth inhibition) and phytotoxicity 4 . . . 90%-100% of herbicidal efficacy or phytotoxicity 3 . . . 70%-89% of herbicidal efficacy or phytotoxicity 2 . . . 40%-69% of herbicidal efficacy or phytotoxicity 1 . . . 1%-39% of herbicidal efficacy or phytotoxicity 0 . . . 0% of herbicidal efficacy or phytotoxicity
A 75 cm^2 plastic pot was filled with soil (clay loam) and planted seeds of bulrush which is a rice paddy weed. After covering the top with 75 cm^3 soil, the pot was filled with water so that the soil submerged under 5 cm depth of water and kept in a hot house. The test plants, at the one leaf stage, were treated with the solution of a formulation containing the compound of the present invention as an active ingredient at the predetermined effective dosage (300 g/ha as an active ingredient). The pots were kept in a hot house for 21 days after the treatment and the herbicidal efficacy was investigated and evaluated according to the standard in Test Example 1 by comparing with the untreated control. Further, as a comparative compound, the compound No. 6-28 described in the JP-A-2004-107322 was used.

The test system of series [3] is false pimpernel. The experiment in a line: Test Example 2: herbicidal efficacy on rice paddy weeds post-emergence. Type of series: in vivo, Lindernia pyxidaria. The following applies: dosage 1000 g/ha; post-emergence, one leaf stage; 21 days after treatment.
The test system of series [4] is transplanted paddy rice plant and Bulrush. Kind of series: Test Example 5: selectivity between transplanted paddy rice plant and weeds. Conditions: (highest dosage with no phytotoxicity to paddy rice)/(lowest dosage with effective level 4 on Bulrush); rice 3000-100 g/ha, Bulrush 300-10 g/ha; 21 days. Type of series: in vivo. Here is the method:
as §1
Phytotoxicity test for transplanted paddy rice plants was carried out, as in Test Example 3, by the treatment of 3000, 1000, 300 and 100 (g/ha of the active ingredient) dosage, and herbicidal test to weed post-emergence was carried out to Burlush seeded as in Test Example 2 treating at 300, 100, 30 and 10 (g/ha) dosage. The pots were kept in a hot house for 21 days after the treatment, and the phytotoxicity and the herbicidal efficacy was investigated and evaluated according to the standard in Test Example 1 by comparing with the untreated control. […] Further, as a comparative compound, the compound No. 6-28 described in the JP-A-2004-107322 was used.

Series [5] relates to false pimpernel. Kind of series: Test Example 1: herbicidal efficacy on rice paddy weeds pre-emergence. The class given is in vivo, Lindernia pyxidaria. The following applies: dosage 1000 g/ha, 21 days.
Another series deals with barnyard glass. The experiment in a line: Test Example 2: herbicidal efficacy on rice paddy weeds post-emergence. Conditions: dosage 1000 g/ha; post-emergence, one leaf stage; 21 days after treatment. The class given is in vivo, Echinochloa crus-galli. An outline of the steps: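 Efficacy on paddy weeds was scored on a 0 to 4 growth-inhibition scale: 4 for 90%-100%, 3 for 70%-89%, 2 for 40%-69%, 1 for 1%-39% and 0 for 0%. Barnyard glass was grown in clay loam in 75 cm^2 pots under 5 cm of water in a hot house. It was compared with untreated pots 21 days after treatment.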

Series [6] deals with bulrush. Kind of series: Test Example 1: herbicidal efficacy on rice paddy weeds pre-emergence. The class given is in vivo, Scirpus juncoides. The following applies: dosage 1000 g/ha, 21 days.
The test system of series [7] is paddy rice plant (cultivar: Nihonbare). Kind of series: Test Example 3: phytotoxicity test for transplanted paddy rice plant. Conditions: dosage 1000 g/ha; transplanted rice, treated 5 days after transplantation; 21 days after treatment. Type of series: in vivo. A digest of the protocol: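 Clay loam soil was placed in a 75 cm^2 plastic pot and flooded to a water depth of 5 cm. Two Nihonbare paddy rice plants at the two-leaf stage were transplanted 1 cm deep and grown in a hot house. After treatment, pots stayed in the hot house for 21 days, and phytotoxicity was then graded against an untreated control.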

Take `CCC1(C(C)C)CN(Cc2ccccc2N(C(=O)OCC(C)C)S(=O)(=O)C(F)(F)F)C(=O)O1` (stereo not drawn) [1-133]: the “Bulrush post (herbicidal efficacy grade)” value with bulrush [1] is reported as 4 (90%-100% of herbicidal efficacy or phytotoxicity). Moreover, in the series on bulrush [2], the “Herbicide effect to Bulrush” value was 4 (90%-100% of herbicidal efficacy or phytotoxicity). The “False pimpernel post (herbicidal efficacy grade)” value (from here on “False pimpernel post”) in the series with false pimpernel [3] is 4 (90%-100% of herbicidal efficacy or phytotoxicity). The “Selective Index” value in series [4] was found to be 10. In the series with false pimpernel [5], the “False pimpernel pre (herbicidal efficacy grade)” value (shortened to “False pimpernel pre”) is given as 4 (90%-100% of herbicidal efficacy or phytotoxicity). The “Burnyard grass post (herbicidal efficacy grade)” value (shortened to “Burnyard grass post”) in the series on barnyard glass is on record as 4 (90%-100% of herbicidal efficacy or phytotoxicity). Moreover, the “Bulrush pre (herbicidal efficacy grade)” value with bulrush [6] was 4 (90%-100% of herbicidal efficacy or phytotoxicity). Moreover, in series [7], the “Phytotoxicity to paddy rice” value is 1 (1%-39% of herbicidal efficacy or phytotoxicity).

With `C#CCOC(=O)N(c1ccccc1CN1CC(C)(C)OC1=O)S(=O)(=O)C(F)(F)F` [1-79], the “Bulrush post (herbicidal efficacy grade)” value with bulrush [1] is 4 (90%-100% of herbicidal efficacy or phytotoxicity). Also, the “Herbicide effect to Bulrush” value with bulrush [2] is reported as 4 (90%-100% of herbicidal efficacy or phytotoxicity). Moreover, the “False pimpernel post” value in the series on false pimpernel [3] was 4 (90%-100% of herbicidal efficacy or phytotoxicity). Besides, in series [4], the “Selective Index” value came to 10. Further, in the series with false pimpernel [5], the “False pimpernel pre” value is recorded as 4 (90%-100% of herbicidal efficacy or phytotoxicity). For the same compound, the “Burnyard grass post” value in the series on barnyard glass was 4 (90%-100% of herbicidal efficacy or phytotoxicity). In addition, in the series on bulrush [6], the “Bulrush pre (herbicidal efficacy grade)” value is 4 (90%-100% of herbicidal efficacy or phytotoxicity). Further, in series [7], the “Phytotoxicity to paddy rice” value is 2 (40%-69% of herbicidal efficacy or phytotoxicity).

Take `CCOC(=O)N(c1ccccc1CN1CC(C)(CC(C)C)OC1=O)S(=O)(=O)C(F)(F)F` (racemic) [1-125]: in the series on bulrush [1], the “Bulrush post (herbicidal efficacy grade)” value was 4 (90%-100% of herbicidal efficacy or phytotoxicity). The “Herbicide effect to Bulrush” value with bulrush [2] is on record as 4 (90%-100% of herbicidal efficacy or phytotoxicity). Also, the “False pimpernel post” value in the series with false pimpernel [3] was 4 (90%-100% of herbicidal efficacy or phytotoxicity). Also, in series [4], the “Selective Index” value came to 10. The “False pimpernel pre” value in the series with false pimpernel [5] is 4 (90%-100% of herbicidal efficacy or phytotoxicity). For the same compound, the “Burnyard grass post” value in the series with barnyard glass is given as 4 (90%-100% of herbicidal efficacy or phytotoxicity). For the same compound, the “Bulrush pre (herbicidal efficacy grade)” value with bulrush [6] is 4 (90%-100% of herbicidal efficacy or phytotoxicity). In addition, in series [7], the “Phytotoxicity to paddy rice” value is listed as 1 (1%-39% of herbicidal efficacy or phytotoxicity).

Turning to `COC(=O)N(c1ccccc1CN1CC(C)(C)SC1=O)S(=O)(=O)C(F)(F)F` [1-186], in the series with bulrush [1], the “Bulrush post (herbicidal efficacy grade)” value is given as 4 (90%-100% of herbicidal efficacy or phytotoxicity). The “Herbicide effect to Bulrush” value in the series on bulrush [2] is listed as 4 (90%-100% of herbicidal efficacy or phytotoxicity). Moreover, the “False pimpernel post” value with false pimpernel [3] is on record as 4 (90%-100% of herbicidal efficacy or phytotoxicity). Moreover, the “Selective Index” value in series [4] was 10. Moreover, the “False pimpernel pre” value in the series with false pimpernel [5] is reported as 4 (90%-100% of herbicidal efficacy or phytotoxicity). Besides, the “Burnyard grass post” value in the series with barnyard glass was 4 (90%-100% of herbicidal efficacy or phytotoxicity). The “Bulrush pre (herbicidal efficacy grade)” value in the series with bulrush [6] is 4 (90%-100% of herbicidal efficacy or phytotoxicity). In series [7], the “Phytotoxicity to paddy rice” value is reported as 1 (1%-39% of herbicidal efficacy or phytotoxicity).

Regarding `CCC1CN(Cc2ccccc2N(C(=O)CC(C)C)S(=O)(=O)C(F)(F)F)C(=O)O1` (racemic) [1-53], the “Bulrush post (herbicidal efficacy grade)” value in the series with bulrush [1] was 4 (90%-100% of herbicidal efficacy or phytotoxicity). Moreover, the “Herbicide effect to Bulrush” value with bulrush [2] was 3 (70%-89% of herbicidal efficacy or phytotoxicity). Further, the “False pimpernel post” value in the series with false pimpernel [3] is on record as 4 (90%-100% of herbicidal efficacy or phytotoxicity). Moreover, the “Selective Index” value in series [4] is listed as 10. Also, the “False pimpernel pre” value in the series on false pimpernel [5] is listed as 4 (90%-100% of herbicidal efficacy or phytotoxicity). In the series with barnyard glass, the “Burnyard grass post” value is reported as 4 (90%-100% of herbicidal efficacy or phytotoxicity). Further, the “Bulrush pre (herbicidal efficacy grade)” value in the series with bulrush [6] is 4 (90%-100% of herbicidal efficacy or phytotoxicity). Further, the “Phytotoxicity to paddy rice” value in series [7] is given as 0 (0% of herbicidal efficacy or phytotoxicity).

`COCCOC(=O)N(c1ccccc1CN1CC(C)(C)OC1=O)S(=O)(=O)C(F)(F)F` [1-81]: in the series on bulrush [1], the “Bulrush post (herbicidal efficacy grade)” value is reported as 4 (90%-100% of herbicidal efficacy or phytotoxicity). Besides, the “Herbicide effect to Bulrush” value in the series on bulrush [2] is 4 (90%-100% of herbicidal efficacy or phytotoxicity). In addition, the “False pimpernel post” value in the series on false pimpernel [3] is recorded as 4 (90%-100% of herbicidal efficacy or phytotoxicity). Besides, the “Selective Index” value in series [4] was found to be 30. Further, in the series with false pimpernel [5], the “False pimpernel pre” value was 4 (90%-100% of herbicidal efficacy or phytotoxicity). The “Burnyard grass post” value in the series on barnyard glass is reported as 4 (90%-100% of herbicidal efficacy or phytotoxicity). Also, in the series with bulrush [6], the “Bulrush pre (herbicidal efficacy grade)” value was 4 (90%-100% of herbicidal efficacy or phytotoxicity). Also, the “Phytotoxicity to paddy rice” value in series [7] is recorded as 2 (40%-69% of herbicidal efficacy or phytotoxicity).

Turning to `CCC1(C)CN(Cc2ccccc2N(C(=O)OCC(C)C)S(=O)(=O)C(F)(F)F)C(=O)O1` (racemic) [1-60], the “Bulrush post (herbicidal efficacy grade)” value in the series with bulrush [1] was 4 (90%-100% of herbicidal efficacy or phytotoxicity). In addition, the “Herbicide effect to Bulrush” value in the series on bulrush [2] is recorded as 4 (90%-100% of herbicidal efficacy or phytotoxicity). The “False pimpernel post” value in the series with false pimpernel [3] is reported as 4 (90%-100% of herbicidal efficacy or phytotoxicity). Also, in series [4], the “Selective Index” value was “≧30”. For the same compound, the “False pimpernel pre” value with false pimpernel [5] was 4 (90%-100% of herbicidal efficacy or phytotoxicity). The “Burnyard grass post” value in the series with barnyard glass is on record as 4 (90%-100% of herbicidal efficacy or phytotoxicity). In addition, in the series on bulrush [6], the “Bulrush pre (herbicidal efficacy grade)” value was 4 (90%-100% of herbicidal efficacy or phytotoxicity). The “Phytotoxicity to paddy rice” value in series [7] is 3 (70%-89% of herbicidal efficacy or phytotoxicity).

Consider `CCC1(CC)CN(Cc2ccccc2NS(=O)(=O)C(F)(F)F)C(=S)O1` [1-178], for which the “Bulrush post (herbicidal efficacy grade)” value in the series with bulrush [1] is 4 (90%-100% of herbicidal efficacy or phytotoxicity). Moreover, in the series with bulrush [2], the “Herbicide effect to Bulrush” value is 4 (90%-100% of herbicidal efficacy or phytotoxicity). The “False pimpernel post” value in the series with false pimpernel [3] is given as 4 (90%-100% of herbicidal efficacy or phytotoxicity). In addition, the “Selective Index” value in series [4] is given as 10. For the same compound, the “False pimpernel pre” value in the series with false pimpernel [5] is on record as 4 (90%-100% of herbicidal efficacy or phytotoxicity). Moreover, the “Burnyard grass post” value in the series with barnyard glass is reported as 4 (90%-100% of herbicidal efficacy or phytotoxicity). For the same compound, the “Bulrush pre (herbicidal efficacy grade)” value with bulrush [6] is 4 (90%-100% of herbicidal efficacy or phytotoxicity). Besides, in series [7], the “Phytotoxicity to paddy rice” value is listed as 1 (1%-39% of herbicidal efficacy or phytotoxicity).

For `COCCOC(=O)N(c1ccccc1CN1CC(C)(C2CC2)OC1=O)S(=O)(=O)C(F)(F)F` (racemic) [1-119], the “Bulrush post (herbicidal efficacy grade)” value in the series on bulrush [1] was 4 (90%-100% of herbicidal efficacy or phytotoxicity). Further, the “Herbicide effect to Bulrush” value in the series with bulrush [2] was 4 (90%-100% of herbicidal efficacy or phytotoxicity). The “False pimpernel post” value in the series on false pimpernel [3] was 4 (90%-100% of herbicidal efficacy or phytotoxicity). For the same compound, the “Selective Index” value in series [4] is given as 30. In addition, in the series with false pimpernel [5], the “False pimpernel pre” value was 4 (90%-100% of herbicidal efficacy or phytotoxicity). Besides, the “Burnyard grass post” value with barnyard glass is 4 (90%-100% of herbicidal efficacy or phytotoxicity). In addition, in the series on bulrush [6], the “Bulrush pre (herbicidal efficacy grade)” value was 4 (90%-100% of herbicidal efficacy or phytotoxicity). Moreover, the “Phytotoxicity to paddy rice” value in series [7] is recorded as 1 (1%-39% of herbicidal efficacy or phytotoxicity).
